These results are taken from patent US9573954B2, “Pyrazolopyrimidine compounds” (University Health Network, priority 2012, dated 2017).

Broadly, the GI50 is the concentration at which growth is held to half of that of the control. Usually IC50 stands for the concentration needed to halve the response being measured.

Read-outs that look alike come from different tables or passages of the source. Where only a bound is given, the exact number is not on record here.

Experiment [1] concerns colon cancer cells (HCT116). Put plainly: Cancer cell line growth inhibition, Sulforhodamine B assay, HCT116. It counts as cell-based. Particulars: Homo sapiens, HCT-116, 120 h, HCT116, 5 days, SRB, read-out: Cancer Cell Line GI50 Range HCT116. A digest of the protocol: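 GI50 is calculated from growth inhibition relative to DMSO controls, using TCA-fixed, SRB-stained protein mass read at 570 nm. Compound, 10 nM–50 μM final in 10% FBS DMEM, was applied for 5 days to HCT116 cells that had been plated 24 h before at 1000–4000/well.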

For experiment [2], the system named is ovarian cancer cells (PA-1). Put plainly: Cancer cell line growth inhibition, Sulforhodamine B assay, PA-1. In kind it is cell-based. To be noted: 120 h, PA-1, 5 days, SRB, read-out: Cancer Cell Line GI50 Range PA-1. The method, then: (§1) Breast cancer cells (MDA-MB-231 and MDA-MB-468), colon cancer cells (HCT116) and ovarian cancer cells (PA-1 and OVCAR-3) were seeded (1000 to 4000 in 80 μl per well depending on the cell growth rate) into 96 well plates 24 hours before compound overlay. Compounds were prepared as 10 mM stock solutions in 100% DMSO which were diluted with DMEM (Dulbecco's Modified Eagle's Medium) cell growth Medium (Invitrogen, Burlington, ON, Canada) containing 10% FBS (Fetal Bovine Serum) to concentrations ranging from 50 nM to 250 μM. Aliquots (20 μl) from each concentration were overlaid to 80 μl of the pre-seeded cells in the 96 well plates to make final concentrations of 10 nM to 50 μM. The cells were cultured for 5 days before the Sulforhodamine B assay (SRB) was performed to determine the compound's cell growth inhibition activity.
(§2) Sulforhodamine B (purchased from Sigma, Oakville, ON, Canada) is a water-soluble dye that binds to the basic amino acids of the cellular proteins. Thus, colorimetric measurement of the bound dye provides an estimate of the total protein mass that is related to the cell number. the cells are fixed in situ by gently aspirating off the culture media and adding 50 μl ice cold 10% Trichloroacetic Acid (TCA) per well and incubate at 4° C. for 30-60 min, The plates are washed with H2O five times and allowed to air dry for 5 min. Addition of 50 μl 0.4% (w/v) SRB solution in 1% (v/v) acetic acid to each well and incubation for 30 min at RT completes the staining reaction. Following staining, plates are washed four times with 1% acetic acid to remove unbound dye and then allowed to air dry for 5 min. The stain is solubilized with 100 μl of 10 mM Tris pH 10.5 per well. Absorbance is read at 570 nm.
(§3) The percentage (%) of relative growth inhibition was calculated by comparing to DMSO treated only cells (100%). GI50's were determined for compounds with cytotoxic activity. The GI50 was calculated using GraphPad PRISM software (GraphPad Software, Inc., San Diego, Calif., USA).
In Table 1 below, GI50 value ranges for compound examples against breast cancer cell lines (MDA-MB-468), colon cancer cell lines (HCT116) and ovarian cancer cell lines (PA-1) are given.
(§4) In Table 2 below, GI50 value ranges for compound examples against breast cancer cell lines (MDA-MB-231), colon cancer cell lines (HCT116) and ovarian cancer cell lines (PA-1) are given.
Background: In SRB staining, fixed cells bind dye roughly in proportion to their protein.

The subject of experiment [3] is breast cancer cells (MDA-MB-231). Put plainly: Cancer cell line growth inhibition, Sulforhodamine B assay, MDA-MB-231. It counts as cell-based. Particulars: Homo sapiens, 120 h; Table 2; MDA-MB-231, 5 days, SRB; read-out: Cancer Cell Line GI50 Range MDA-MB-231. The method, then:
as §1, §2, §3, §4

Experiment [4] addresses T1, human TTK (Homo sapiens, UniProt P33981).
T1 construct: Active TTK was purchased from Invitrogen as an amino terminal GST fusion of full length human TTK; purchased Invitrogen
T1 sequence (P33981 1-857): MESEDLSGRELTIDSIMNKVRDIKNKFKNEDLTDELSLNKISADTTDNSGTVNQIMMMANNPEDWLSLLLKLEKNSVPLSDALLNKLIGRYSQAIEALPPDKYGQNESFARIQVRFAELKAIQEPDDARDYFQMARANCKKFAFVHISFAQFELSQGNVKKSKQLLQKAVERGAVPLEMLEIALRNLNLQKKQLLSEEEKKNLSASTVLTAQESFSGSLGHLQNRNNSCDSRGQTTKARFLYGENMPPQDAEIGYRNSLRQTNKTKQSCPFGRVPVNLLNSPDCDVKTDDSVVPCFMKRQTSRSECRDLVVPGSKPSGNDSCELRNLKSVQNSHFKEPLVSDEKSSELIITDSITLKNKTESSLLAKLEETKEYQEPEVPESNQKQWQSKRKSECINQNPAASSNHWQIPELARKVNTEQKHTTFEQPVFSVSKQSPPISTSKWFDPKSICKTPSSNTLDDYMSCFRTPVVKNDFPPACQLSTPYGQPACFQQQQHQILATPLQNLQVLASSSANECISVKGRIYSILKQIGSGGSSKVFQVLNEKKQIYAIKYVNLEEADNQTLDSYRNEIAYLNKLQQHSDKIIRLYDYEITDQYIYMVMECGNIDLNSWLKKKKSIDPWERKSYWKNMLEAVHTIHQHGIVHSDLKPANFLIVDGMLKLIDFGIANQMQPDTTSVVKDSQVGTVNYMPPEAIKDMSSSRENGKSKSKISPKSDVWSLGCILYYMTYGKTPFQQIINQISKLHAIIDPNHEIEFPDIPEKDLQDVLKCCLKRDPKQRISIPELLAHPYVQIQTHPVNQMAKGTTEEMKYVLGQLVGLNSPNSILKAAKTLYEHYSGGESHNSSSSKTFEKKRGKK
Briefly: TTK inhibition assay (indirect ELISA). In kind it is biochemical. To be noted: 16 μM ATP (asterisk), read-out: TTK IC50 Range. A digest of the protocol:
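Activity detected by indirect ELISA after compounds sat with full-length GST-TTK for 5 min prior to starting the reaction with ATP. IC50 came from a four-parameter logistic curve of % inhibition, calculated against background and uninhibited control wells.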
(In general: In an ELISA, binding on a coated surface is turned into a signal by an enzyme label.)

Experiment [5] deals with breast cancer cells (MDA-MB-468). Briefly: Cancer cell line growth inhibition, Sulforhodamine B assay, MDA-MB-468. It counts as cell-based. To be noted: Homo sapiens, MDA-MB-468, 120 h, Table 1; MDA-MB-468, 5 days, SRB; read-out: Cancer Cell Line GI50 Range MDA-MB-468. A digest of the protocol: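 Sulforhodamine B staining (TCA-fixed, read at 570 nm) estimates cell mass after 5-day compound treatment of MDA-MB-468 cells, final concentrations 10 nM to 50 μM in 10% FBS DMEM. GI50 derived from growth inhibition versus DMSO controls.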

The subject of experiment [6] is Ovarian 2393A tumor initiating cells. Put plainly: Tumor-initiating cell growth inhibition, Alamar Blue assay, ovarian TICs. It counts as cell-based. Particulars: 144 h; Table 1; ovarian TICs, 6 days, Alamar Blue; read-out: Tumor Initiating Cell GI50 Range Ovarian 2393A. A digest of the protocol: (§5)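 Colon TICs (4,000/well, non-TC plates) and ovarian TICs (1,000/well, TC plates) kept in serum-free DMEM:F12 with B-27, heparin, bFGF and EGF. Compound added after 24 h at 0.1% DMSO, then 9 days (colon) or 6 days (ovarian) at 37° C. GI50 from Alamar Blue fluorescence (ex 544/em 590) after 4 h.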

Experiment [7] concerns Colon 12 tumor initiating cells. Put plainly: Tumor-initiating cell growth inhibition, Alamar Blue assay, colon TICs. In kind it is cell-based. To be noted: 216 h; Table 1; colon TICs, 9 days, Alamar Blue; read-out: Tumor Initiating Cell GI50 Range Colon 12. A digest of the protocol: as §5
In general terms: Alamar Blue is a resazurin reagent that responds to reducing activity.

For `Cc1cc(-c2cnn3c(NCC4CCOCC4)cc(OC4CCCCC4)nc23)ccc1C(=O)NC1CC1` [Example B23, 4-(5-(cyclohexyloxy)-7-(((tetrahydro-2H-pyran-4-yl)methyl)amino)pyrazolo[1,5-a]pyrimidin-3-yl)-N-cyclopropyl-2-methylbenzamide], the GI50 in experiment [1] (Table 2), in experiment [2] (Table 2) and in experiment [3] was 100 to 500 nM throughout. Besides, the IC50 in experiment [4] (Table 2) is less than 100 nM.
With `Cc1cc(-c2cnn3c(NCC4CCOCC4)cc(NCC(C)(C)O)nc23)ccc1C(=O)NC1CC1` [Example B10, N-cyclopropyl-4-(5-((2-hydroxy-2-methylpropyl)amino)-7-(((tetrahydro-2H-pyran-4-yl)methyl)amino)pyrazolo[1,5-a]pyrimidin-3-yl)-2-methylbenzamide], the GI50 in experiment [1] (Table 2) is 100 to 500 nM; in experiment [2] (Table 2), 100 to 500 nM; in experiment [3] it was greater than 500 nM. Moreover, in experiment [4] (Table 2), the IC50 is less than 100 nM.
For `Cc1cc(-c2cnn3c(NCC4CCOCC4)cc(N4CCOCC4)nc23)ccc1C(=O)NC1CC1` [Example B11, N-cyclopropyl-2-methyl-4-(5-morpholino-7-(((tetrahydro-2H-pyran-4-yl)methyl)amino)pyrazolo[1,5-a]pyrimidin-3-yl)benzamide], the GI50 in experiment [1] (Table 2), in experiment [2] (Table 2) and in experiment [3] was 100 to 500 nM each time. Besides, in experiment [4] (Table 2), the IC50 was less than 100 nM.
In the case of `O=C(NC1CC1)c1ccc(-c2cnn3c(NCC4CCOCC4)nc(OC4CCOCC4)nc23)cc1Cl` [Example A14, 2-chloro-N-cyclopropyl-4-(4-(((tetrahydro-2H-pyran-4-yl)methyl)amino)-2-((tetrahydro-2H-pyran-4-yl)oxy)pyrazolo[1,5-a][1,3,5]triazin-8-yl)benzamide], the GI50 was greater than 500 nM in experiment [5]; 100 to 500 nM in experiment [1] (Table 1); 100 to 500 nM in experiment [2] (Table 1); greater than 500 nM in experiment [6]; greater than 500 nM in experiment [7]. The IC50 in experiment [4] (Table 1) is less than 100 nM.
For the compound `O=C(NC1CC1)c1ccc(-c2cnn3c(NCC4CCOCC4)nc(Oc4ccccc4)nc23)cc1Cl` [Example A4, 2-Chloro-N-cyclopropyl-4-(2-phenoxy-4-(((tetrahydro-2H-pyran-4-yl)methyl)amino)pyrazolo[1,5-a][1,3,5]triazin-8-yl)benzamide], the GI50 is 100 to 500 nM in experiment [5]; 100 to 500 nM in experiment [1] (Table 1); 100 to 500 nM in experiment [2] (Table 1); 100 to 500 nM in experiment [6]; no more than 100 nM in experiment [7]. The IC50 in experiment [4] (Table 1) is less than 100 nM.
Regarding `O=C(NC1CC1)c1ccc(-c2cnn3c(NCC4CCOCC4)nc(OC4CCCC4)nc23)cc1Cl` [Example A5, 2-chloro-4-(2-(cyclopentyloxy)-4-(((tetrahydro-2H-pyran-4-yl)methyl)amino)pyrazolo[1,5-a][1,3,5]triazin-8-yl)-N-cyclopropylbenzamide], the 50% growth inhibitory concentration (GI50) in experiment [5] is greater than 500 nM; in experiment [1] (Table 1), 100 to 500 nM; in experiment [2] (Table 1), 100 to 500 nM; in experiment [6], greater than 500 nM; in experiment [7], 100 to 500 nM. In addition, the IC50 in experiment [4] (Table 1) is less than 100 nM.
As for `Cc1cc(-c2cnn3c(NCC4CCOCC4)nc(Oc4ccccc4)nc23)ccc1C(=O)NC1CC1` [Example A3, N-cyclopropyl-2-methyl-4-(2-phenoxy-4-(((tetrahydro-2H-pyran-4-yl)methyl)amino)pyrazolo[1,5-a][1,3,5]triazin-8-yl)benzamide], the GI50 is no more than 100 nM in experiment [5]; no more than 100 nM in experiment [1] (Table 1); no more than 100 nM in experiment [2] (Table 1); 100 to 500 nM in experiment [6]; no more than 100 nM in experiment [7]. For the same compound, the IC50 in experiment [4] (Table 1) is less than 100 nM.
Take `O=C(NC1CC1)c1ccc(-c2cnn3c(NCCN4CCOCC4)nc(Oc4ccccc4)nc23)cc1` [Example A7, N-cyclopropyl-4-(4-((2-morpholinoethyl)amino)-2-phenoxypyrazolo[1,5-a][1,3,5]triazin-8-yl)benzamide]: the concentration for 50% growth inhibition (GI50) is greater than 500 nM in experiment [5]; greater than 500 nM in experiment [1] (Table 1); 100 to 500 nM in experiment [2] (Table 1); greater than 500 nM in experiment [6]; greater than 500 nM in experiment [7]. For the same compound, the IC50 in experiment [4] (Table 1) was less than 100 nM.
With `Cc1cc(-c2cnn3c(NCC4CCOCC4)nc(NC4CCCC4)nc23)ccc1C(=O)NC1CC1` [Example A2, 4-(2-(Cyclopentylamino)-4-(((tetrahydro-2H-pyran-4-yl)methyl)amino)pyrazolo[1,5-a][1,3,5]triazin-8-yl)-N-cyclopropyl-2-methylbenzamide], the GI50 in experiment [5] was 100 to 500 nM; in experiment [1] (Table 1), 100 to 500 nM; in experiment [2] (Table 1) it was no more than 100 nM; in experiment [6], 100 to 500 nM; in experiment [7], no more than 100 nM. Further, the IC50 in experiment [4] (Table 1) is less than 100 nM.
As to `O=C(NC1CC1)c1ccc(-c2cnn3c(NCC4CCOCC4)nc(NC4CCCC4)nc23)cc1` [Example A15, 4-(2-(cyclopentylamino)-4-(((tetrahydro-2H-pyran-4-yl)methyl)amino)pyrazolo[1,5-a][1,3,5]triazin-8-yl)-N-cyclopropylbenzamide], the GI50 was greater than 500 nM in experiment [5]; 100 to 500 nM in experiment [1] (Table 1); 100 to 500 nM in experiment [2] (Table 1); 100 to 500 nM in experiment [6]; 100 to 500 nM in experiment [7]. The IC50 in experiment [4] (Table 1) is less than 100 nM.
